“And” between values parts separate entries of the source, which are not always exact repeats. Equal entries are not always repeated.
Key:
[1] = tested on: GLI1 binding to DNA in RMS13 cells; assay: GLI DNA binding assay (biotinylated oligo pulldown); type: cell-based; conditions: lysate of RMS13 cells treated 48 hrs
Experimental: A detailed protocol for DNA binding assay was previously described. Briefly, cells treated for 48 hrs with compounds were lysed in 1% NP40/phosphate buffered saline/protease inhibitors and cleared using a microcentrifuge. The lysate was then incubated with 0.5 µM of double-strand biotinylated oligonucleotides and 40 µl streptavidin-agarose bead suspension (Thermo Scientific, 20349) for 2 hrs. The streptavidin agarose beads are washed (3X) with 1% NP40/phosphate buffered saline/protease inhibitors and eluted with 2X Laemmli sample buffer. The supernatants are separated on SDS-PAGE and analyzed using western blotting. Antibodies were purchased from the following vendors: GLI1 (Cell Signaling Technology, #2534) and actin (SIGMA, #A5441).

[2] = tested on: SMO-M2 in NIH3T3 (GLI-BS reporter); assay: GLI-BS reporter assay, NIH3T3 cells with SMO-M2 DNA; type: cell-based; conditions: Mus musculus
Experimental: The HH-responsive firefly luciferase reporter (GLI-BS) and a control Renilla luciferase reporter (SV40-RL) were transfected into indicated cell lines using Effectene (Qiagen) either alone or with indicated DNAs. 24 hrs after transfection, cells were switched to low serum media (3% calf serum), and grown for another 48 hrs. in 5% CO2 in the presence/absence of compounds. 3T3-ShhFL cell line that stably expressing SHH and the two reporters were cultured in a similar fashion. FL and RL activities in lysate generated using Passive Lysis Buffer (Promega) were then assessed using the Dual-Luciferase kit (Promega) and a 96-well plate reading luminometer (BMG). The ratio of FL/RL was calculated and the averaged ratios from three replicates were reported.

HDAC6 = target: T1, HDAC6 (Homo sapiens, UniProt Q9UBN7); assay: In vitro HDAC profiling (deacetylation assay), HDAC6; type: biochemical; conditions: for HDAC Activity (Fluorescent counts): Repeat1/Repeat 2
T1 construct: purchased BPS Bioscience #50051-11
T1 sequence (Q9UBN7 1-1215): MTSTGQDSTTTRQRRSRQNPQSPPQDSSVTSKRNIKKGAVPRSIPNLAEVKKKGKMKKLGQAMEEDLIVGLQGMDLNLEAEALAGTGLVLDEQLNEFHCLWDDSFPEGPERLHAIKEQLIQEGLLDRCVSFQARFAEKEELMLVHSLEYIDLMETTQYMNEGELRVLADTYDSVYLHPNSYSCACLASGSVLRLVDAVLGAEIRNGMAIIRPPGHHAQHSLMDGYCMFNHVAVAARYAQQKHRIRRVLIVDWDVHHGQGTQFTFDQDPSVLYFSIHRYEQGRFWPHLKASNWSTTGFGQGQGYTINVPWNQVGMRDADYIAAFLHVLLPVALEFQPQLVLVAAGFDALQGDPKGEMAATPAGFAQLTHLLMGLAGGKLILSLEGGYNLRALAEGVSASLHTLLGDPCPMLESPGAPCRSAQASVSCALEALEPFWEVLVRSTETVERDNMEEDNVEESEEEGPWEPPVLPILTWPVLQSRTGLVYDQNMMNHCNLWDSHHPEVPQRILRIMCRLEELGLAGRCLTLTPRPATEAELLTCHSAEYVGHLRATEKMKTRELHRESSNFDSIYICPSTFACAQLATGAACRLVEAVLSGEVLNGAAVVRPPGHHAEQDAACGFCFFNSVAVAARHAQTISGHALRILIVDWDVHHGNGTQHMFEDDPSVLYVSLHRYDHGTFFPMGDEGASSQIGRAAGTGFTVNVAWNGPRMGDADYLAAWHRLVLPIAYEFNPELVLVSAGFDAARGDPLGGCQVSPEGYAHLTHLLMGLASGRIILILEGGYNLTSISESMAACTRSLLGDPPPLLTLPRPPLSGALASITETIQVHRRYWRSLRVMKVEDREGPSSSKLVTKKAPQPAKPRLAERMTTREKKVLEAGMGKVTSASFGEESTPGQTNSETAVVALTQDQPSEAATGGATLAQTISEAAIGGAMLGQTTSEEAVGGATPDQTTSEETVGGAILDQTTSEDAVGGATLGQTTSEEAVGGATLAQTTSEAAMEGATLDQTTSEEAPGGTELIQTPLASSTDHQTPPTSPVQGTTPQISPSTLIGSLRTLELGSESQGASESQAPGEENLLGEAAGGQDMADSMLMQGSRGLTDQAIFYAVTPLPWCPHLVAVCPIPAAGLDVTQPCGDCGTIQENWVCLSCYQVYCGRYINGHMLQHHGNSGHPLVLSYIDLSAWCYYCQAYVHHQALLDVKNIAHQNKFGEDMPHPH
Experimental: HDAC profiling was performed at BPS Bioscience (San Diego, CA). All of the compounds are dissolved in DMSO. A series of dilutions of the compounds were prepared with 10% DMSO in HDAC assay buffer (#50031) and 5 µl of the dilution was added to a 50 µl reaction so that the final concentration of DMSO is 1% in all of reactions. All of the enzymatic reactions were conducted in duplicate at 37 °C for 30 mins, except that the enzyme reactions for HDAC11 were at room temperature for 3 hrs. All of the reactions were performed in a 50 µl mixture containing HDAC assay buffer, 5 µg BSA, an HDAC substrate [HDAC Substrate 3 (BPS number 50037) or HDAC Class 2a Substrate 1 (BPS number 50040)], an HDAC enzyme (#50051-11) and a test compound. After enzymatic reactions, 50 μl of HDAC Developer (#50030) was added to each well and the plate was incubated at room temperature for an additional 20 mins. Fluorescence intensity was measured at an excitation of 360 nm and an emission of 460 nm using a Tecan Infinite M1000 microplate reader. HDAC activity assays were performed in duplicates at each concentration. The fluorescent intensity data were analyzed using the computer software, Graphpad Prism. In the absence of the compound, the fluorescent intensity (Ft) in each data set was defined as 100% activity. In the absence of HDAC, the fluorescent intensity (Fb) in each data set was defined as 0% activity. The percent activity in the presence of each compound was calculated according to the following equation: %activity = (F − Fb)/(Ft − Fb), where F = the fluorescent intensity in the presence of the compound. The values of % activity versus a series of compound concentrations were then plotted using non-linear regression analysis of Sigmoidal dose-response curve generated with the equation Y = B + (T − B)/1 + 10((LogIC50 − X) × Hill Slope), where Y = percent activity, B = minimum percent activity, T = maximum percent activity, X = logarithm of compound and Hill Slope = slope factor or Hill coefficient. The IC50 value was determined by the concentration causing a half-maximal percent activity.

O=C(CCCCCCC(=O)Nc1ccc(Cl)c(C(=O)Nc2ccc(NC(=O)c3cc(Cl)ccc3Cl)cc2)c1)NO [IHR-SAHA]
GLI1 binding to immobilized oligos with consensus GLI binding sequence [1]: loss of GLI1 binding
IC50 [2]: 80 nM
HDAC Activity (Fluorescent counts) (HDAC6; HDAC6, WW01 0 Log nM): 17916 Fluorescent counts and 17639 Fluorescent counts
HDAC Activity (Fluorescent counts) (HDAC6; HDAC6, WW01 0.5 Log nM): 16713 Fluorescent counts and 17763 Fluorescent counts
HDAC Activity (Fluorescent counts) (HDAC6; HDAC6, WW01 1 Log nM): 14605 Fluorescent counts and 14491 Fluorescent counts
HDAC Activity (Fluorescent counts) (HDAC6; HDAC6, WW01 1.5 Log nM): 11120 Fluorescent counts and 11971 Fluorescent counts
HDAC Activity (Fluorescent counts) (HDAC6; HDAC6, WW01 2 Log nM): 7800 Fluorescent counts and 7793 Fluorescent counts
HDAC Activity (Fluorescent counts) (HDAC6; HDAC6, WW01 2.5 Log nM): 5185 Fluorescent counts and 5345 Fluorescent counts
HDAC Activity (Fluorescent counts) (HDAC6; HDAC6, WW01 3 Log nM): 4209 Fluorescent counts and 4174 Fluorescent counts
HDAC Activity (Fluorescent counts) (HDAC6; HDAC6, WW01 3.5 Log nM): 3548 Fluorescent counts and 3756 Fluorescent counts
HDAC Activity (Fluorescent counts) (HDAC6; HDAC6, WW01 4 Log nM): 3616 Fluorescent counts and 3660 Fluorescent counts
HDAC Activity (Fluorescent counts) (HDAC6; HDAC6, WW01 -0.5 Log nM): 18352 Fluorescent counts and 17865 Fluorescent counts
IC50 (HDAC6; in vitro deacetylation assay, duplicates): 47 nM
